Measured values: BindingDB's records for PubMed 35144038 (Shaoxing University, 2022)

Target: High affinity cGMP-specific 3',5'-cyclic phosphodiesterase 9A (Homo sapiens, UniProt O76083)
Assay: Inhibition of recombinant human PDE9A1 by radiometric assay

Chain of High affinity cGMP-specific 3',5'-cyclic phosphodiesterase 9A (O76083 whole entry): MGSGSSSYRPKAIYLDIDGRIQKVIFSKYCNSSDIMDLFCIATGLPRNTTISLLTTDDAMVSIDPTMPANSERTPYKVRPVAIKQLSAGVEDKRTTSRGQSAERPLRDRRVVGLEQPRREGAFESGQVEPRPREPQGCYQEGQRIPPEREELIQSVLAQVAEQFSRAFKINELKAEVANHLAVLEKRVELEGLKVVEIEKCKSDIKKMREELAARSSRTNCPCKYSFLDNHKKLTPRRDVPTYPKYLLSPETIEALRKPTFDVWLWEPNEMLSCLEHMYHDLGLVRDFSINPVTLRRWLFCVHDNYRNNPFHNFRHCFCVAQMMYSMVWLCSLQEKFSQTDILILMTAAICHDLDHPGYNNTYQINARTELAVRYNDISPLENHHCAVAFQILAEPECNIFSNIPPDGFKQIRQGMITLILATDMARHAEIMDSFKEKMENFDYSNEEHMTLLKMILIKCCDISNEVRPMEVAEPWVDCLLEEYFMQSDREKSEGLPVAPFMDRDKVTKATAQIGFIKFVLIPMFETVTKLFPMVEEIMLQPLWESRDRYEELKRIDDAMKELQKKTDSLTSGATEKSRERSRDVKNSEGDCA

IC50: 8.2 nM
Structure (SMILES): C[C@@H]1CN(Cc2ncccn2)C[C@H]1c1cn2c(C3CCOCC3)ncc2c(=O)[nH]1 [US10513524, Compound (P3]
